Where two headings read alike, the source gives them in different places.
Key:
Assay in all cases: Kinase panel profiling at 1 µmol/L (MSA or IMAP), percentage inhibition
Assay type in all cases: biochemical
[1] = biological target: panel of 255 wild-type kinases (Homo sapiens, UniProt P08631); conditions: read-out: %-inhibition at 1 µmol/L, HCK
[2] = biological target: T1, panel of 255 wild-type kinases (Homo sapiens, UniProt P29323); conditions: read-out: %-inhibition at 1 µmol/L, EPHB2
T1 sequence (P29323 19-1055): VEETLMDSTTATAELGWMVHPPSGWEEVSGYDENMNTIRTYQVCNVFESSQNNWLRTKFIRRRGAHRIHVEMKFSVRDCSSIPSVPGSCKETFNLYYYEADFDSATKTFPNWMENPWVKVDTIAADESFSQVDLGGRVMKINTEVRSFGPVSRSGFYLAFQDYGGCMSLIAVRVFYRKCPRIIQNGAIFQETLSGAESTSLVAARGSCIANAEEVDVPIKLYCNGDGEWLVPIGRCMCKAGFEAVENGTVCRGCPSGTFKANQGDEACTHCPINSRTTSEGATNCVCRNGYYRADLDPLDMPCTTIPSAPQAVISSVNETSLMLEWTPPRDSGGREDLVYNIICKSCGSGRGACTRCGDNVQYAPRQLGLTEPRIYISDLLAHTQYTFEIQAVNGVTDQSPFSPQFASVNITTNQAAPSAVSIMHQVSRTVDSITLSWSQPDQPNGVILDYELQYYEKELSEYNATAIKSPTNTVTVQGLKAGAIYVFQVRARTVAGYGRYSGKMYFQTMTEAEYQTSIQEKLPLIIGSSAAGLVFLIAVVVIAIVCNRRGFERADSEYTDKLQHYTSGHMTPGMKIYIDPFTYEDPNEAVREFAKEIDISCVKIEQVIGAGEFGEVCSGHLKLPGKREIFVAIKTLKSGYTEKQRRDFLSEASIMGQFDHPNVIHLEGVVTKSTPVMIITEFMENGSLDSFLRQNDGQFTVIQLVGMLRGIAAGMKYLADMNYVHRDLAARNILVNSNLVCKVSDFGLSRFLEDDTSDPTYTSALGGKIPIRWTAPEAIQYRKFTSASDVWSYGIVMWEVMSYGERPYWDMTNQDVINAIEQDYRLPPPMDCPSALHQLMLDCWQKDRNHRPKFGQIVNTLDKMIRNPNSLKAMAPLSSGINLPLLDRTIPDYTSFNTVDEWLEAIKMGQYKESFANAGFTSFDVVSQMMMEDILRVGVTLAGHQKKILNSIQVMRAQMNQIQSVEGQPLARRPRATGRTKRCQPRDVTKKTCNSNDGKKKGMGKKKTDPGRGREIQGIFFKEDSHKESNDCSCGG

[3] = biological target: panel of 255 wild-type kinases (Homo sapiens, UniProt P31751); conditions: read-out: %-inhibition AKT2
[4] = biological target: panel of 255 wild-type kinases (Homo sapiens, UniProt P35916); conditions: read-out: %-inhibition at 1 µmol/L, FLT4
[5] = biological target: T2, panel of 255 wild-type kinases (Homo sapiens, UniProt Q9NRA0); conditions: read-out: %-inhibition at 1 µmol/L, SPHK2
T2 sequence (Q9NRA0 1-654): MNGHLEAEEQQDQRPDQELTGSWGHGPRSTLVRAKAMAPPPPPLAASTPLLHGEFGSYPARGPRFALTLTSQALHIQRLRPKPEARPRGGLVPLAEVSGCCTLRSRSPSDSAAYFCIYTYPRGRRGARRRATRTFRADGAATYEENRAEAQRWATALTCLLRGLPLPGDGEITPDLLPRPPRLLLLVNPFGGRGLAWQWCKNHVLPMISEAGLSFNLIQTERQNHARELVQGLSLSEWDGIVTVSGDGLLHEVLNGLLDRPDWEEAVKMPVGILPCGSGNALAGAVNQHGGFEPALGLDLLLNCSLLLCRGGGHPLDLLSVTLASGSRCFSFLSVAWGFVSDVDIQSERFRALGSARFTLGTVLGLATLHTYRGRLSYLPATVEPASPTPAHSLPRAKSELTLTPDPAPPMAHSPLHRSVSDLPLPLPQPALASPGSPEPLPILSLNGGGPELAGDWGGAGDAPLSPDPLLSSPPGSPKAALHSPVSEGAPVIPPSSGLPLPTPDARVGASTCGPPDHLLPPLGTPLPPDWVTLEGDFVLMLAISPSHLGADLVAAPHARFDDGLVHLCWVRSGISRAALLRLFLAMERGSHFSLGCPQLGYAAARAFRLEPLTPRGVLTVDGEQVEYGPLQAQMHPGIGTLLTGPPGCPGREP

[6] = kinase HCK, 1 µmol/L single concentration
[7] = kinase EPHB2, 1 µmol/L single concentration
[8] = AKT2 kinase assay, 1 µmol/L single concentration
[9] = kinase FLT4, 1 µmol/L single concentration
[10] = kinase SPHK2, 1 µmol/L single concentration

| Structure (SMILES) | inhibition at 1 µM [1, 6] | inhibition at 1 µM [2, 7] | inhibition at 1 µM [3, 8] | inhibition at 1 µM [4, 9] | inhibition at 1 µM [5, 10] | inhibition at 1 µM [1] | inhibition at 1 µM [2] | inhibition at 1 µM [3] | inhibition at 1 µM [4] | inhibition at 1 µM [5] |
| --- | --- | --- | --- | --- | --- | --- | --- | --- | --- | --- |
| Cn1cnc2c(F)c(Nc3ccc(Br)cc3Cl)c(C(=O)NOCCO)cc21 [selumetinib] | 4% | -0.445% | 0.316% | 8% | -4% | – | – | – | – | – |
| COc1ccc(CN2C3CC2CN(c2ccc(-c4cc(OCC(C)(C)O)cn5ncc(C#N)c45)cn2)C3)cn1 [selpercatinib] | 58% | 64% | -1.76% | 101% | -3.75% | – | – | – | – | – |
| O=C(Nc1cnn2ccc(N3CCC[C@@H]3c3cc(F)ccc3F)nc12)N1CC[C@H](O)C1 [larotrectinib] | -3% | -0.574% | -5.27% | -1% | -1.56% | – | – | – | – | – |
| CCN1C(=O)N(c2c(F)c(OC)cc(OC)c2F)Cc2cnc3[nH]c(CN4CCOCC4)cc3c21 [pemigatinib] | 31% | -0.799% | -2.2% | 99% | -5.31% | – | – | – | – | – |
| CNC(=O)c1ccc(-c2cnc3ncc(Cc4ccc5ncccc5c4)n3n2)cc1F [capmatinib] | – | – | – | – | – | -1.63% | -5% | 1.54% | 10% | -2% |
| FC(F)(F)c1ccc(CNc2ccc(Cc3c[nH]c4ncc(Cl)cc34)cn2)cn1 [pexidartinib] | 3% | 8% | -6% | 66% | 7% | – | – | – | – | – |
| C[C@H](Nc1ncnc2nc[nH]c12)c1cc2cccc(Cl)c2c(=O)n1-c1ccccc1 [duvelisib] | 6% | 2% | -0.908% | 0.523% | 11% | – | – | – | – | – |
| CO[C@]1(C(=O)N[C@@H](C)c2ccc(-n3cc(F)cn3)nc2)CC[C@H](c2nc(C)cc(Nc3cc(C)[nH]n3)n2)CC1 [pralsetinib] | 82% | 35% | 0.305% | 99% | -2.48% | – | – | – | – | – |
| Cc1cc(Nc2ncnc3ccc(NC4=NC(C)(C)CO4)cc23)ccc1Oc1ccn2ncnc2c1 [tucatinib] | -3% | 2.14% | -1.46% | 13% | 0.368% | – | – | – | – | – |
| Cn1cnc2c(F)c(Nc3ccc(Br)cc3F)c(C(=O)NOCCO)cc21 [binimetinib] | -8% | 3.33% | 0.0508% | 3.37% | -7.55% | – | – | – | – | – |
| Cc1nc(NC(=O)N2CCC[C@H]2C(N)=O)sc1-c1ccnc(C(C)(C)C(F)(F)F)c1 [alpelisib] | 4.56% | 1.07% | -0.795% | 5% | 6.5% | – | – | – | – | – |
| C=CC(=O)N1CCC([C@@H]2CCNc3c(C(N)=O)c(-c4ccc(Oc5ccccc5)cc4)nn32)CC1 [zanubrutinib] | – | -1.07% | -4% | 6.34% | -6.64% | – | – | – | – | – |
| C[C@H]1Oc2cc(cnc2N)-c2c(nn(C)c2C#N)CN(C)C(=O)c2ccc(F)cc21 [lorlatinib] | 42% | 14% | -2.31% | 5% | 10% | – | – | – | – | – |
| CCN1CCN(c2ccc(Nc3cc(N(C)C(=O)Nc4c(Cl)c(OC)cc(OC)c4Cl)ncn3)cc2)CC1 [infigratinib] | 22% | -0.114% | -0.769% | 92% | 2% | – | – | – | – | – |
| COC(=O)N[C@@H](C)CNc1nccc(-c2cn(C(C)C)nc2-c2cc(Cl)cc(NS(C)(=O)=O)c2F)n1 [encorafenib] | -5.46% | 5.43% | 2% | 17% | -12% | – | – | – | – | – |
| CCc1nc(C(N)=O)c(Nc2ccc(N3CCC(N4CCN(C)CC4)CC3)c(OC)c2)nc1NC1CCOCC1 [gilteritinib] | 87% | 75% | -4.73% | 99% | 9% | – | – | – | – | – |
| CN1CCN(c2ccc(C(=O)Nc3n[nH]c4ccc(Cc5cc(F)cc(F)c5)cc34)c(NC3CCOCC3)c2)CC1 [entrectinib] | 91% | 64% | -3.69% | – | 20% | – | – | – | – | – |
| COc1cc2ncnc(Nc3ccc(F)c(Cl)c3)c2cc1NC(=O)/C=C/CN1CCCCC1 [dacomitinib] | 57% | 51% | -1.19% | 34% | 7.54% | – | – | – | – | – |
| Cn1cc(-c2cc3c(N4CCN(c5ncc([C@@](C)(N)c6ccc(F)cc6)cn5)CC4)ncnn3c2)cn1 [avapritinib] | 52% | 31% | -0.192% | 88% | 0.914% | – | – | – | – | – |
| CCn1c(=O)c(-c2cc(NC(=O)Nc3ccccc3)c(F)cc2Br)cc2cnc(NC)cc21 [ripretinib] | 60% | 75% | -5% | 93% | -10% | – | – | – | – | – |

From PMC9516332 (Frontiers in Oncology, 2022)
